Here are results for 8 compounds from US20210038607A1, “OXADIAZOLYLTHIOPHENE DERIVATIVES USEFUL AS HISTONE DEACETYLASE INHIBITORS” (Karus Therapeutics Limited, priority 2018, published 2021).

The target in one assay is T1, Human HDAC1 (Homo sapiens, UniProt Q13547).
T1 construct: full length with C-terminal His-tag and C-terminal FLAG-tag; His (C); FLAG (C); host or cells: baculovirus expression system
The experiment in a line: HDAC1 biochemical assay, AMC-labeled peptide substrate. The conditions noted are these: read-out: HDAC Isoform IC50 (nM) 1. The method, then:
(§1) Activity against all zinc-dependent HDACs 1 to 11 was assessed by using an acetylated AMC-labeled peptide substrate. The substrate RHKK(Ac)AMC was used for HDAC1, HDAC2, HDAC3, HDAC6 and HDAC10; the substrate used for HDAC8 was RHK(Ac)K(Ac)AMC. Activity against the class IIa HDACs (HDAC4, 5, 7, 9) and HDAC11 was determined using a class IIa-specific substrate, BOC-Lys(trifluoroacetyl)-AMC (“Trifluoroacetyl Lysine”; see Lahm et al, 2007, PNAS, 104, 17335-17340). All assays were based on the AMC-labeled substrate and developer combination.
(§2) The protocol involved a two-step reaction: first, the substrate with the acetylated lysine side chain is incubated with a sample containing HDAC activity, to produce the deacetylated products, which are then digested in the second step by the addition of developer to produce the fluorescent signal proportional to the amount of deacetylated substrates.
Human HDAC1 (GenBank Accession No. NM_004964), full length with C-terminal His-tag and C-terminal FLAG-tag, MW=56 kDa, expressed in baculovirus expression system.
(§3) Assay Buffer: 50 mM Tris-HCl, pH8.0, 137 mM NaCl, 2.7 mM KCl, 1 mM MgC2. Before use, 1 mg/mL BSA and DMSO are added.
HDAC1: 0.3 ng/ul HDAC1 and 50 μM HDAC substrate are in the reaction buffer with 1% DMSO final. Incubate for 1 hour at 30° C.
(§4) Stage 1: Deacetylation of substrate by incubation of HDAC enzymes with compounds
(§5) Stage 2: Development by addition of Developer to digest the deacetylated substrate, and generate the fluorescent colour; Detection: 360/460 Ex/Em

For a further assay, the target named is T2, Human HDAC9 (Homo sapiens, UniProt Q9UKV0).
T2 construct: amino acids 604-1066 with C-terminal His tag; His (C); host or cells: baculovirus expression system
T2 sequence (Q9UKV0 604-1066 isoform Q9UKV0-5): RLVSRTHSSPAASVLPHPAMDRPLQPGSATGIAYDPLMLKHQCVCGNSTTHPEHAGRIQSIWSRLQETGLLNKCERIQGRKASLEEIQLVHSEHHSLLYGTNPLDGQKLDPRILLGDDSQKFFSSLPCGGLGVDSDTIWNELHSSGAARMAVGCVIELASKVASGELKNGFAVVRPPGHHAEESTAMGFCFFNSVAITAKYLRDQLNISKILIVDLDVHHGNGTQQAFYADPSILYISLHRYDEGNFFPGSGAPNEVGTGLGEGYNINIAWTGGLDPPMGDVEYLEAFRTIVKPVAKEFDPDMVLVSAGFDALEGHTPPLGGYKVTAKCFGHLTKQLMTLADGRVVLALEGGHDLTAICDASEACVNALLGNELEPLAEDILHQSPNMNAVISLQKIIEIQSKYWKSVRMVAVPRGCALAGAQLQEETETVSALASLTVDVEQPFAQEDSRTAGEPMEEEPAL
The experiment in a line: HDAC9 biochemical assay, class IIa-specific substrate. The conditions noted are these: read-out: HDAC Isoform IC50 (nM) 9. The method, then:
as §1, §2
Human HDAC9 (GenBank Accession No. NM_178423), amino acids 604-1066 with C-terminal His tag, MW=50.7 kDa, expressed in baculovirus expression system.
as §3
(§6) For class IIa HDACs, assay buffer is the same.
HDAC9: 0.06 ng/ul HDAC9 and 50 μM Class IIa HDAC substrate are in the reaction buffer with 1% DMSO final. Incubate for 30 minutes at room temperature.
as §4, §5

The target in the next assay is T3, Human HDAC5 (Homo sapiens, UniProt Q9UQL6).
T3 construct: full length with C-terminal His tag, MW=51.1 kDa; His (C); host or cells: baculovirus expression system
T3 sequence (Q9UQL6 656-1122 limits assumed): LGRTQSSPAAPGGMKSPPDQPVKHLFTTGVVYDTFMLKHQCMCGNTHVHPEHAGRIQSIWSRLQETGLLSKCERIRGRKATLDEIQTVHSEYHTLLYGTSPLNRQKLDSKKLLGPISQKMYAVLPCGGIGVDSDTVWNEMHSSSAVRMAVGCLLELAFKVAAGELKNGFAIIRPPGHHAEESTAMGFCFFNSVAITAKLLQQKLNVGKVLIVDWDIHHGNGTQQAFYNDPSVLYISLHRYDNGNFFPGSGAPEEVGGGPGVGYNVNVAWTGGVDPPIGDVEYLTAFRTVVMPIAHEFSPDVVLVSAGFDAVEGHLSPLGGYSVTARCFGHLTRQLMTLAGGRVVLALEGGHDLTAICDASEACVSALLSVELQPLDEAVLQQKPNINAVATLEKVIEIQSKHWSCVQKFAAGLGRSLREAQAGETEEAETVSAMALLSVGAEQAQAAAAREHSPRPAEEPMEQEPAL
The experiment in a line: HDAC5 biochemical assay, class IIa-specific substrate. The conditions noted are these: read-out: HDAC Isoform IC50 (nM) 5. The method, then: as §1, §2
Human HDAC5 (GenBank Accession No. NM_005474), full length with C-terminal His tag, MW=51.1 kDa, expressed in baculovirus expression system.
as §3, §6
HDAC5: 0.05 ng/ul HDAC5 and 50 μM Class IIa HDAC substrate are in the reaction buffer with 1% DMSO final. Incubate for 30 minutes at room temperature.
as §4, §5

The target in the next assay is T4, Recombinant human HDAC6 (Homo sapiens, UniProt Q9UBN7).
T4 construct: full length, MW=159 kDa; GST (N); host or cells: Sf9 insect cells (baculovirus)
T4 sequence (Q9UBN7 1-1215): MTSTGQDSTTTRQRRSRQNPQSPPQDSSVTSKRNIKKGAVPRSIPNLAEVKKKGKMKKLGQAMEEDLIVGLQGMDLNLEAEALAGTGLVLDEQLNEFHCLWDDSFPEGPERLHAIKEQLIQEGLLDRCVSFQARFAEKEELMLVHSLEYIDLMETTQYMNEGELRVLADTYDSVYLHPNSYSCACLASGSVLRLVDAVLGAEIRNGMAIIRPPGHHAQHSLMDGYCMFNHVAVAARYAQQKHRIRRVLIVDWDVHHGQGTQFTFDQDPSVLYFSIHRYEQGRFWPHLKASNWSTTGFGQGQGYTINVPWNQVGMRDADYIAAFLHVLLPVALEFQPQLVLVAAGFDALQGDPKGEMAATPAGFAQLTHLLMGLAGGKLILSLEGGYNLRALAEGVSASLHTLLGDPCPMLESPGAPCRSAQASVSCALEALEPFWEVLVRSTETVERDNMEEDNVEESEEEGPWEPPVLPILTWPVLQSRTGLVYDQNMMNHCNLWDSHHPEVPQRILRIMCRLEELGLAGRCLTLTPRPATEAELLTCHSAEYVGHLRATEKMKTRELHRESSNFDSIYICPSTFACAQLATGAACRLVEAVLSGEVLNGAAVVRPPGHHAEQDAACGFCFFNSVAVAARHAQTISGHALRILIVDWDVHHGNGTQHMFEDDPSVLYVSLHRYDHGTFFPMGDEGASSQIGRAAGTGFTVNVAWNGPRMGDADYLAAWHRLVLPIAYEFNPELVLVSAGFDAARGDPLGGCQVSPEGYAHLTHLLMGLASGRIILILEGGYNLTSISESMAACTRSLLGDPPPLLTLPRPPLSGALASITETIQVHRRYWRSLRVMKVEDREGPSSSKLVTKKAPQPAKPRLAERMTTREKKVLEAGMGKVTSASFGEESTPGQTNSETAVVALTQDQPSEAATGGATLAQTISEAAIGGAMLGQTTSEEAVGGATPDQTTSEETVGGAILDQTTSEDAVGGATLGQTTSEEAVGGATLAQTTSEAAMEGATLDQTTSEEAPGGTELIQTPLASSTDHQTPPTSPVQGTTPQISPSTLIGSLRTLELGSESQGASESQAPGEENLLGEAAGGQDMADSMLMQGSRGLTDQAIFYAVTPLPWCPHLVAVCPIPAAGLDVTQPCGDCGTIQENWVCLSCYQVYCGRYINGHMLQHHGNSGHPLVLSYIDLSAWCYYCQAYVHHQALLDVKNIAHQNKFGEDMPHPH
The experiment in a line: HDAC6 biochemical assay, AMC-labeled peptide substrate. The following applies: HDAC6; read-out: HDAC Isoform IC50 (nM) 6. The method, then: as §1, §2
Recombinant human HDAC6 (GenBank Accession No. BC069243), full length, MW=159 kDa, was expressed by baculovirus in Sf9 insect cells using an N-terminal GST tag.
as §3
HDAC6: 0.3 ng/ul HDAC6 and 50 μM HDAC substrate are in the reaction buffer with 1% DMSO final. Incubate for 1 hours at 30° C.
as §4, §5

Another assay concerns the target T5, Human HDAC7 (Homo sapiens, UniProt Q8WUI4).
T5 construct: (a.a. 518-end) with N-terminal GST tag; GST (N); host or cells: baculovirus expression system
T5 sequence (Q8WUI4 518-952 limits assumed): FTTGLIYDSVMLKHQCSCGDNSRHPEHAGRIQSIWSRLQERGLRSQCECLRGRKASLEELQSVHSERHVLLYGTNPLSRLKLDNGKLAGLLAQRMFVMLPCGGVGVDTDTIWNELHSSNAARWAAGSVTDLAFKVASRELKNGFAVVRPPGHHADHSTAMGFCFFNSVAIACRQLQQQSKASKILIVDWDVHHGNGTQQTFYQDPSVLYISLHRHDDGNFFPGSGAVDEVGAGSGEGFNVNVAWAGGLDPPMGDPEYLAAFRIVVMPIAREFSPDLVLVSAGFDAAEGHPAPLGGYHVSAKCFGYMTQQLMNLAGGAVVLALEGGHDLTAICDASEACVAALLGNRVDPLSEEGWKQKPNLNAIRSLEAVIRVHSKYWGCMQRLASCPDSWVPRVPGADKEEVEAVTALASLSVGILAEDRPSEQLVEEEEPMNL
The experiment in a line: HDAC7 biochemical assay, class IIa-specific substrate. The conditions noted are these: read-out: HDAC Isoform IC50 (nM) 7. The procedure:
as §1, §2
Human HDAC7 (GenBank Accession No. AY302468), (a.a. 518-end) with N-terminal GST tag, MW=78 kDa, expressed in baculovirus expression system.
as §3, §6
HDAC7: 0.001 ng/ul HDAC7 and 50 μM Class IIa HDAC substrate are in the reaction buffer with 1% DMSO final. Incubate for 30 minutes at room temperature.
as §4, §5

In another assay the target is T6, Human HDAC4 (Homo sapiens, UniProt P56524).
T6 construct: amino acids 627-1085 with N-terminal GST tag; GST (N); host or cells: baculovirus expression system
T6 sequence (P56524 627-1084 limits assumed): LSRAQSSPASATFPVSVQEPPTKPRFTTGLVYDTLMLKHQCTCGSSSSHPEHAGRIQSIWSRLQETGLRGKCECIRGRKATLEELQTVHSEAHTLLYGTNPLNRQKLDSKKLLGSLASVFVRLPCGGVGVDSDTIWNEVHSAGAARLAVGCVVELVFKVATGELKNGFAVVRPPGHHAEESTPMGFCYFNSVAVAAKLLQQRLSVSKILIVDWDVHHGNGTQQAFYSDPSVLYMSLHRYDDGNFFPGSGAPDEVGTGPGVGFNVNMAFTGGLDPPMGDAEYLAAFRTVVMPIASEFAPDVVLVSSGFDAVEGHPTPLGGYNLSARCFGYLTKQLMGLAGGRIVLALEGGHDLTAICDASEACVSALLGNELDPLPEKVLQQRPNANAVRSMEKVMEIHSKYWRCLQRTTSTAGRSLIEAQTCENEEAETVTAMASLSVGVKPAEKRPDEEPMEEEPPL
The experiment in a line: HDAC4 biochemical assay, class IIa-specific substrate. The following applies: read-out: HDAC Isoform IC50 (nM) 4. The method, then:
as §1, §2
Human HDAC4 (GenBank Accession No. NM_006037), amino acids 627-1085 with N-terminal GST tag, MW=75.2 kDa, expressed in baculovirus expression system.
as §3, §6
HDAC4: 0.004 ng/ul HDAC4 and 50 μM Class IIa HDAC substrate are in the reaction buffer with 1% DMSO final. Incubate for 30 minutes at room temperature.
as §4, §5

T1 sequence (Q13547 whole entry): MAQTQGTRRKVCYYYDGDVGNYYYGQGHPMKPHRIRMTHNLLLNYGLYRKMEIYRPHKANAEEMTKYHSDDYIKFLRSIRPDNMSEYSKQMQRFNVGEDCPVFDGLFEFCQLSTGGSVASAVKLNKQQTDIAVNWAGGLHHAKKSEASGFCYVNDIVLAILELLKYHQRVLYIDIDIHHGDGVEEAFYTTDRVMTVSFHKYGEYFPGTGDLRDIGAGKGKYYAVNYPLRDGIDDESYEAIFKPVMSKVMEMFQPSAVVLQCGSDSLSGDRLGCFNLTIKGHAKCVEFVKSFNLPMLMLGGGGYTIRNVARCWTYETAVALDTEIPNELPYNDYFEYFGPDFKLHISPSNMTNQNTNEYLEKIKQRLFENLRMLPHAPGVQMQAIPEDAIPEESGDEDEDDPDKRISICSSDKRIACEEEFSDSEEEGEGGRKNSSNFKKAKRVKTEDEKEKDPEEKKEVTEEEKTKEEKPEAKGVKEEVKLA

In the case of `FC(F)(F)c1nc(-c2ccc(CN(c3cnccn3)c3nccc4ncccc34)s2)no1` [Example AJ, N-(Pyrazin-2-yl)-N-({5-[5-(trifluoromethyl)-1,2,4-oxadiazol-3-yl]thiophen-2-yl}methyl)-1,6-naphthyridin-5-amine], the IC50 at Human HDAC1 is greater than 10000 nM; on Human HDAC9, no more than 10000 nM; at Human HDAC5 it was no more than 10000 nM; at Recombinant human HDAC6 it was no more than 10000 nM; on Human HDAC7, no more than 10000 nM; on Human HDAC4, no more than 10000 nM.
For the compound `FC(F)(F)c1nc(-c2ccc(CN(c3cnccn3)c3nccc4cnccc34)s2)no1` [Example AK, N-(Pyrazin-2-yl)-N-({5-[5-(trifluoromethyl)-1,2,4-oxadiazol-3-yl]thiophen-2-yl}methyl)-2,6-naphthyridin-1-amine], the IC50 at Human HDAC1 was greater than 10000 nM; at Human HDAC9 it was no more than 500 nM; on Human HDAC5, no more than 500 nM; on Recombinant human HDAC6 it was no more than 1000 nM; on Human HDAC7, no more than 500 nM; on Human HDAC4, no more than 500 nM.
As to `FC(F)(F)c1nc(-c2ccc(CN(c3cnccn3)c3nccc4nccnc34)s2)no1` [Example AL, N-{Pyrido[3,4-b]pyrazin-5-yl}-N-({5-[5-(trifluoromethyl)-1,2,4-oxadiazol-3-yl]thiophen-2-yl}methyl)pyrazin-2-amine], the IC50 at Human HDAC1 is greater than 10000 nM; on Human HDAC9, no more than 10000 nM; at Human HDAC5, no more than 10000 nM; at Recombinant human HDAC6, no more than 10000 nM; at Human HDAC7, no more than 10000 nM; on Human HDAC4, no more than 10000 nM.
Turning to `FC(F)(F)c1nc(-c2ccc(CN(c3cnccn3)c3ncccc3C3CC3)s2)no1` [Example AM, N-(3-Cyclopropylpyridin-2-yl)-N-({5-[5-(trifluoromethyl)-1,2,4-oxadiazol-3-yl]thiophen-2-yl}methyl)pyrazin-2-amine], the IC50 is greater than 10000 nM at Human HDAC1; no more than 10000 nM on Human HDAC9; no more than 500 nM at Human HDAC5; no more than 10000 nM on Recombinant human HDAC6; no more than 1000 nM at Human HDAC7; no more than 500 nM at Human HDAC4.
Consider `FC(F)(F)c1nc(-c2ccc(CN(c3cnccn3)c3ncccc3N3CCOCC3)s2)no1` [Example AN, N-[3-(Morpholin-4-yl)pyridin-2-yl]-N-({5-[5-(trifluoromethyl)-1,2,4-oxadiazol-3-yl]thiophen-2-yl}methyl)pyrazin-2-amine], for which the IC50 at Human HDAC1 is greater than 10000 nM; on Human HDAC9 it was no more than 10000 nM; on Human HDAC5, no more than 10000 nM; on Recombinant human HDAC6, no more than 1000 nM; at Human HDAC7, no more than 10000 nM; at Human HDAC4, no more than 10000 nM.
In the case of `FC(F)(F)c1nc(-c2ccc(CN(c3cccnc3)c3cnccn3)s2)no1` [Example AO, N-(Pyridin-3-yl)-N-({5-[5-(trifluoromethyl)-1,2,4-oxadiazol-3-yl]thiophen-2-yl}methyl)pyrazin-2-amine], the IC50 was greater than 10000 nM at Human HDAC1; no more than 1000 nM on Human HDAC9; no more than 500 nM at Human HDAC5; no more than 500 nM at Recombinant human HDAC6; no more than 500 nM at Human HDAC7; no more than 500 nM at Human HDAC4.
`FC(F)(F)c1nc(-c2ccc(CN(c3ccc(N4CCCC4)nc3)c3cnccn3)s2)no1` [Example AP, N-[6-(Pyrrolidin-1-yl)pyridin-3-yl]-N-({5-[5-(trifluoromethyl)-1,2,4-oxadiazol-3-yl]thiophen-2-yl}methyl)pyrazin-2-amine]: the IC50 was greater than 10000 nM at Human HDAC1; no more than 10000 nM on Human HDAC9; no more than 10000 nM at Human HDAC5; greater than 10000 nM on Recombinant human HDAC6; no more than 10000 nM on Human HDAC7; no more than 10000 nM at Human HDAC4.
Take `FC(F)(F)c1cncc(N(Cc2ccc(-c3noc(C(F)(F)F)n3)s2)c2cnccn2)c1` [Example AQ, N-({5-[5-(Trifluoromethyl)-1,2,4-oxadiazol-3-yl]thiophen-2-yl}methyl)-N-[5-(trifluoromethyl)pyridin-3-yl]pyrazin-2-amine]: the IC50 was greater than 10000 nM on Human HDAC1; no more than 10000 nM on Human HDAC9; no more than 1000 nM on Human HDAC5; no more than 10000 nM on Recombinant human HDAC6; no more than 10000 nM on Human HDAC7; no more than 10000 nM on Human HDAC4.
